Counter-ions that a name gives are not always drawn. Like-named read-outs stand apart in the source and are kept apart here. Starred links: 1 amine or outer side, 2 acyl side, 3 side chain; linkers in the order of their positions; H or OH if unused. Positions of bridges follow the written chain, without caps; N, C: chain ends. Non-standard residues stand in square brackets, D forms with d. Residues, ends and D or L forms follow the SMILES beside them. *: point of attachment. pTerphenylCO(4''-OnC5H11) = CCCCCOc1ccc(-c2ccc(-c3ccc(C(=O)*)cc3)cc2)cc1; Orn(4R-OH,5R-OH) = O=C([C@H](C[C@@H](O)[C@@H](O)N[*:3])N[*:1])[*:2]; hTyr(3S-OH,4S-OH) = N[C@H](C(=O)O)[C@H](O)[C@@H](O)c1ccc(O)cc1; Pro(3S-OH,4S-Me) = C[C@H]1CN[C@H](C(=O)O)[C@H]1O; Hyp = O=C(O)[C@@H]1C[C@@H](O)CN1
Tests used:
Format in all cases: biochemical
[1] = molecular target: T1, recombinant PRL-2 (Homo sapiens, UniProt Q12974); experiment: In vitro phosphatase assay (DiFMUP hydrolysis), PRL-2;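 further: PRL-2 activity read as DiFMUP hydrolysis after 20 min at room temperature with drug, enzyme first pre-reduced at 4 °C for 20 min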
T1 construct: 6xHis (N, cleaved yes); made in house; host or cells: E. coli One Shot BL21 Star
T1 sequence (Q12974 1-167): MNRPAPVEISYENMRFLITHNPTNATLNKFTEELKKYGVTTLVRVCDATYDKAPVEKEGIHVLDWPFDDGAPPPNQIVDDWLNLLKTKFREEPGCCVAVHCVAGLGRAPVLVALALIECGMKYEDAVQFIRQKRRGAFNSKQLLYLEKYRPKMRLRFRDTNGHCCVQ

[2] = molecular target: T2, recombinant PRL-3 (Homo sapiens, UniProt O75365); experiment: In vitro phosphatase assay (DiFMUP hydrolysis), PRL-3; further: test concentration or dose not given here
T2 construct: 6xHis (N, cleaved yes); made in house; host or cells: E. coli One Shot BL21 Star

[3] = molecular target: T3, recombinant PRL-1 (Homo sapiens, UniProt Q93096); experiment: In vitro phosphatase assay (DiFMUP hydrolysis), PRL-1; further: test concentration or dose not given here
T3 construct: 6xHis (N, cleaved yes); made in house; host or cells: E. coli One Shot BL21 Star
T3 sequence (Q93096 1-173): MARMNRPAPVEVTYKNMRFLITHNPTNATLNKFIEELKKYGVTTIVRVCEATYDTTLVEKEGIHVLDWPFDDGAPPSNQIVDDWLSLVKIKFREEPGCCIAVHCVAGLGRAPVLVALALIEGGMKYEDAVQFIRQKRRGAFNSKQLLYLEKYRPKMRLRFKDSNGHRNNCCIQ

[4] = FDA-approved drug screen, compared to DMSO
[5] = FDA-approved drug screen, activity compared to DMSO

T2 sequence (O75365 whole entry): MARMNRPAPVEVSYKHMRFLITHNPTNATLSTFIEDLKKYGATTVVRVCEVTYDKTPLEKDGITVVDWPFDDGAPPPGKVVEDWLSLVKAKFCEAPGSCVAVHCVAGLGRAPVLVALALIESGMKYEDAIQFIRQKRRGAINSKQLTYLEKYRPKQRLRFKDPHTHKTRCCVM

SMILES | % Phosphatase Activity (compared to DMSO) PRL-2 [1, 4] | % Phosphatase Activity (compared to DMSO) PRL-3 [2, 4] | % Phosphatase Activity (compared to DMSO) PRL-1 [3, 4] | other results
O=C(O)c1ccccc1O [Salicylic acid] | 124% | 98% | 103% | –
NC[C@H](O)c1ccc(O)c(O)c1.O.O=C(O)C(O)C(O)C(=O)O [Noradrenaline bitartrate monohydrate] | 120% | 88% | 103% | –
CCCCCCc1ccc(O)cc1O [Hexylresorcinol] | 83% | 84% | 90% | –
CC(C)(C)C(=O)OCOP(=O)(COCCn1cnc2c(N)ncnc21)OCOC(=O)C(C)(C)C [Adefovir Dipivoxil] | 88% | 74% | 92% | –
CNS(=O)(=O)CCc1ccc2[nH]cc(C3CCN(C)CC3)c2c1 [Naratriptan] | 86% | 90% | 103% | –
CCCCCCCCCCCCCCCCOP(=O)([O-])OCC[N+](C)(C)C [Miltefosine] | 94% | 122% | 92% | –
CCCN[C@H]1CCc2nc(N)sc2C1 [Pramipexole] | – | – | – | % Phosphatase Activity (compared to DMSO) PRL-2 [1]: 106%; % Phosphatase Activity (compared to DMSO) PRL-3 [2]: 72%; % Phosphatase Activity (compared to DMSO) PRL-1 [3]: 109%
CCC(=O)O[C@]1(C(=O)CCl)[C@@H](C)C[C@H]2[C@@H]3CCC4=CC(=O)C=C[C@]4(C)[C@@]3(F)[C@@H](O)C[C@@]21C [Clobetasol propionate] | 88% | 78% | 92% | –
O=C(O)CCCc1ccccc1 [Sodium Phenylbutyrate] | – | – | – | % Phosphatase Activity (compared to DMSO) PRL-2 [1, 5]: 110%; % Phosphatase Activity (compared to DMSO) PRL-3 [2, 5]: 82%; % Phosphatase Activity (compared to DMSO) PRL-1 [3, 5]: 103%
CN(C)C(=O)COC(=O)Cc1ccc(OC(=O)c2ccc(NC(=N)N)cc2)cc1 [Camostat Mesilate] | 138% | 94% | 98% | –
Cc1c(-c2ccccc2)oc2c(C(=O)OCCN3CCCCC3)cccc2c1=O [Flavoxate HCl] | 109% | 113% | 103% | –
Nc1c(CC(=O)O)cccc1C(=O)c1ccc(Br)cc1 [Bromfenac Sodium] | 99% | 75% | 86% | –
CCc1ccc(CCOc2ccc(CC3SC(=O)NC3=O)cc2)nc1 (stereo not drawn) [Pioglitazone] | 105% | 80% | 103% | –
Cn1cnc([N+](=O)[O-])c1Sc1ncnc2nc[nH]c12 [Azathioprine] | – | – | – | % Phosphatase Activity (compared to DMSO) PRL-2 [1]: 107%; % Phosphatase Activity (compared to DMSO) PRL-3 [2]: 74%; % Phosphatase Activity (compared to DMSO) PRL-1 [3]: 96%
CCCCNc1ccc(C(=O)OCCN(C)C)cc1 [Tetracaine HCl] | – | – | – | % Phosphatase Activity (compared to DMSO) PRL-2 [1, 5]: 116%; % Phosphatase Activity (compared to DMSO) PRL-3 [2, 5]: 88%; % Phosphatase Activity (compared to DMSO) PRL-1 [3, 5]: 99%
Nc1nc(N)nc(-c2cc(Cl)ccc2Cl)n1 [Irsogladine] | 106% | 81% | 84% | –

SMILES | % Phosphatase Activity (compared to DMSO) PRL-2 [1, 4] | % Phosphatase Activity (compared to DMSO) PRL-3 [2, 4] | % Phosphatase Activity (compared to DMSO) PRL-1 [3, 4] | other results
COc1cc(O)c(C(=O)c2ccccc2)cc1S(=O)(=O)O [Sulisobenzone] | – | – | – | % Phosphatase Activity (compared to DMSO) PRL-2 [1, 5]: 95%; % Phosphatase Activity (compared to DMSO) PRL-3 [2, 5]: 81%; % Phosphatase Activity (compared to DMSO) PRL-1 [3, 5]: 91%
CN1CCC(=C2c3ccccc3CCn3c(C=O)cnc32)CC1 [Alcaftadine] | 89% | 85% | 98% | –
CCCCCC(=O)O[C@]1(C(C)=O)CC[C@H]2[C@@H]3CCC4=CC(=O)CC[C@]4(C)[C@H]3CC[C@@]21C [Hydroxyprogesterone caproate] | 84% | 73% | 91% | –
O=c1ccc2ccccc2o1 [Coumarin] | 98% | 76% | 92% | –
CN(C(=O)c1ccc(F)cc1C(F)(F)F)C1CCN(c2nnc(-c3ccnn3C)c3ccccc23)CC1 [Taladegib (LY2940680)] | – | – | – | % Phosphatase Activity (compared to DMSO) PRL-2 [1, 5]: 107%; % Phosphatase Activity (compared to DMSO) PRL-3 [2, 5]: 86%; % Phosphatase Activity (compared to DMSO) PRL-1 [3, 5]: 91%
CCC(=O)NCC[C@@H]1CCc2ccc3c(c21)CCO3 [Ramelteon] | 96% | 73% | 91% | –
CCN1CCN(c2cc3c(cc2F)c(=O)c(C(=O)O)cn3C2CC2)CC1 [Enrofloxacin] | 176% | 118% | 152% | –
OC[C@@H](O)[C@@H](O)[C@H](O)[C@@H](O)CO [Sorbitol] | – | – | – | % Phosphatase Activity (compared to DMSO) PRL-2 [1, 5]: 96%; % Phosphatase Activity (compared to DMSO) PRL-3 [2, 5]: 80%; % Phosphatase Activity (compared to DMSO) PRL-1 [3, 5]: 105%
C[C@@H]1C[C@H]2[C@@H]3CCC4=CC(=O)C=C[C@]4(C)[C@@]3(Cl)[C@@H](O)C[C@]2(C)[C@@]1(OC(=O)c1ccco1)C(=O)CCl [Mometasone furoate] | 87% | 77% | 85% | –
CCCCCOc1ccc(-c2ccc(-c3ccc(C(=O)N[C@H]4C[C@@H](O)[C@@H](O)NC(=O)[C@@H]5[C@@H](O)[C@@H](C)CN5C(=O)[C@H]([C@@H](C)O)NC(=O)[C@H]([C@H](O)[C@@H](O)c5ccc(O)cc5)NC(=O)[C@@H]5C[C@@H](O)CN5C(=O)[C@H]([C@@H](C)O)NC4=O)cc3)cc2)cc1 [Anidulafungin (LY303366)] ({pTerphenylCO(4''-OnC5H11)}-[Orn(4R-OH,5R-OH)]T[Hyp][hTyr(3S-OH,4S-OH)]T[Pro(3S-OH,4S-Me)]; lactam 1-C) | 568% | 623% | 569% | –
Cc1ccc(-c2nc3ccc(C)cn3c2CC(=O)N(C)C)cc1 [Zolpidem] | – | – | – | % Phosphatase Activity (compared to DMSO) PRL-2 [1, 5]: 97%; % Phosphatase Activity (compared to DMSO) PRL-3 [2, 5]: 85%; % Phosphatase Activity (compared to DMSO) PRL-1 [3, 5]: 98%
CC[C@H]1[C@@H](O)[C@@H]2[C@H](CC[C@]3(C)[C@@H]([C@H](C)CCC(=O)O)CC[C@@H]23)[C@@]2(C)CC[C@@H](O)C[C@@H]12 [Obeticholic Acid] | 72% | 90% | 86% | –
C[C@@H](O)[C@H]1C(=O)N2C(C(=O)O)=C(S[C@@H]3CN[C@H](CNS(N)(=O)=O)C3)[C@H](C)[C@H]12.O [Doripenem Hydrate] | 107% | 69% | 107% | –
CNCc1ccc(-c2[nH]c3cc(F)cc4c3c2CCNC4=O)cc1 [Rucaparib (AG-014699,PF-01367338)] | 3226% | 2134% | 2402% | –
Cl.c1ccc2c(c1)CCCC2C1=NCCN1 (stereo not drawn) [Tetrahydrozoline HCl] | – | – | – | % Phosphatase Activity (compared to DMSO) PRL-2 [1, 5]: 109%; % Phosphatase Activity (compared to DMSO) PRL-3 [2, 5]: 58%; % Phosphatase Activity (compared to DMSO) PRL-1 [3, 5]: 111%
COC(=O)[C@H]1[C@H]2C[C@@H]3c4[nH]c5cc(OC)ccc5c4CCN3C[C@H]2C[C@@H](OC(=O)c2cc(OC)c(OC)c(OC)c2)[C@@H]1OC [Reserpine] | 105% | 92% | 110% | –

Source: PMC8119466, “A screen of FDA-approved drugs identifies inhibitors of protein tyrosine phosphatase 4A3 (PTP4A3 or PRL-3)” (Scientific Reports, 2021)
